Data as given in patent publication US10675269B2, “Compositions comprising melatonin” (TRINUTRA LTD., priority 2016, dated 2020).

Columns and labels:
RAW 264.7 cells = assay: Nitric oxide (NO) release from LPS-activated RAW 264.7 cells, Griess Reagent System; type: cell-based, murine; conditions: for inhibition of NO production when compared with the LPS-stimulated baseline cells: 1.3 μM valerenic acid
Procedure: The objective of the studies reported in working examples 1-5 hereinbelow was to evaluate the anti-inflammatory properties of Melatonin, carnosic acid (Rosemary extract), Valerenic acid and combinations thereof on a cell line derived from murine macrophages (RAW 264.7 cells) activated by lipopolysaccharide (LPS).
10^5 RAW 264.7 cells were seeded in 96-well plates in a medium containing 1% FBS, 1% Glutamine and 1% Pen/strep in DMEM.
For dose response assays, cells were treated with 2-fold concentrations of Melatonin (starting from 15.6 μM up to 1000 μM LOT # XPS150311, Yes Pharma), Rosemary extract (0.1, 0.2, 0.4, 1, 2, 4, or 10 μM, Product #302659, Batch # LAB.16-659001, Vitiva) or 10% Valerenic acid (starting from 1.56 mg/ml up to 100 mg/ml, Batch # IWTC/5949/15001, Indo World Trading Corporation) for 6 hours. Then, the test solutions were removed and the cells were induced with lipopolysaccharide (LPS) (5 ng/ml). In addition, positive control cells were treated with 10 μM dexamethasone. Nitric oxide (NO) release was measured after incubation at 37° C., 5% CO2 using a Griess Reagent System. The method is based on the chemical diazotization reaction that was originally described by Griess in 1879, which uses sulfanilamide and N-1-napthylethylenediamine dihydrochloride (NED) under acidic (phosphoric acid) conditions. This system detects NO2^− in a variety of biological and experimental liquid matrices such as tissue culture medium that was tested in this study.
For combination assays, cells were treated with various concentrations of Melatonin, Rosemary extract (containing 25% carnosic acid) and 10% Valerenic acid, at the final concentration indicated in each experiment, hereinbelow, for 22 hours together with LPS induction (5 ng/ml). […] In addition, positive control cells were treated with 10 μM dexamethasone. Nitric oxide (NO) release was tested after incubation at 37° C., 5% CO2 using the Griess Reagent System.

laboratory rats = assay: Open field spontaneous activity (mobility time), anxiolytic effect; type: in vivo, rat; conditions: FIG. 3, 15 minute session, 30 minutes after administration
Procedure: Open field tests were used as a measure of the spontaneous activity of laboratory rats, in order to measure the anxiolytic effects of melatonin, valerian and a combination of these two substances. Rats were placed in a behavioral room one hour before testing procedures, for purpose of habituation. Activity was tested in open boxes (open-fields: 80 cm wide, 80 cm large, 60 cm high) made of transparent Plexiglas. Animals were individually placed in the open-fields for 15 minute sessions. The following parameters were recorded: Indices of motor exploratory activity: the distance traveled, mobility time, Open Field spontaneous activity is performed on the testing day, 30 minutes after the administration of a test substance (melatonin, valerian, a combination of the two, or vehicle). • Indices of habituation: distance traveled. • During the last 5 minute period in percent of the first as last 5 minute periods. • Indices of anxiety: • Percentage of distance traveled in the central zone of the open-field. • Percentage of time spent in the central zone of the open-field.

rats = assay: Open field center time, base-line and caffeine-relaxed rats; type: in vivo, rat; conditions: FIG. 4; caffeine-relaxed rats
Procedure: As in Example 3, above, open field tests were used to measure the anxiolytic effects of melatonin, valerian and a combination of these two substances. However, in some of the rats in the present study, the effect of the test substances was measured in rats which had also received caffeine. Thus, while the study reported in Example 3 provided insights into the effect of melatonin and valerian on base-line anxiety, the results obtained in this study relate to the effect of these substances on both base-line and caffeine-induced (“caffeine-relaxed”) subjects. The same open-field method was used as in Example 3. However, in this study, the parameter that was measured was the “center time” that is, the time that the rats spend in the center of tested arena. The center time was used as an index for the anxiolytic effect of the test substances in both “base-line” and “caffeine-relaxed” rats.

[1] = Example 1, FIG. 1, tested separately: 0.5 μM Melatonin, 0.7 μM carnosic acid, 22 hours together with 5 ng/ml LPS
[2] = Example 2, tested separately: 0.05 μM Melatonin, 0.07 μM carnosic acid, 5 ng/ml LPS

| SMILES | inhibition of NO production when compared with the LPS-stimulated baseline cells (RAW 264.7 cells; [1]) | inhibition of NO production when compared with the LPS-stimulated baseline cells (RAW 264.7 cells; [2]) | mobility time in comparison to the vehicle control (laboratory rats) | caffeine induced center motility (rats) | NO production by the cultured cells (RAW 264.7 cells; Example 1, FIG. 1 column 2, positive control 10 μM dexamethasone, 5 ng/ml LPS, LPS-stimulated untreated cells 40 μM) [µM] |
| --- | --- | --- | --- | --- | --- |
| CC(C)c1cc2c(c(O)c1O)[C@@]1(C(=O)O)CCCC(C)(C)[C@@H]1CC2 [carnosic acid] | none of the following individual components produced any significant inhibition | none of the following individual components produced any significant inhibition | – | – | – |
| COc1ccc2[nH]cc(CCNC(C)=O)c2c1 [Melatonin, N-acetyl-5-methoxytryptamine] | none of the following individual components produced any significant inhibition | none of the following individual components produced any significant inhibition | increased the mobility time | only valerian (both when used separately and when combined with melatonin) affected caffeine induced center motility | – |
| C[C@@H]1C[C@H]2[C@@H]3CCC4=CC(=O)C=C[C@]4(C)[C@@]3(F)[C@@H](O)C[C@]2(C)[C@@]1(O)C(=O)CO [dexamethasone] | – | – | – | – | 30 |
| CC1=C2[C@H](/C=C(\C)C(=O)O)CC[C@@H](C)[C@H]2CC1 [valerenic acid] | none of the following individual components produced any significant inhibition | none of the following individual components produced any significant inhibition | – | – | – |
